Consider 16 compounds from PubChem BioAssay AID192 (DTP/NCI, 2004).

The test concerns BDF1 mice, B16 melanoma ip, median survival T/C. Briefly: NCI In Vivo Anticancer Drug Screen. Data for tumor model B16 Melanoma (intraperitoneal) in B6D2F1 (BDF1) mice. Particulars: endpoint: median survival time, higher = longer survival. The essentials: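 The ratio T/C compares compound-treated mice with vehicle-treated controls, using survival or tumor size as the endpoint in a transplantable tumor model.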

[1] abbreviates: dose: 100.0 mg/kg/injection, schedule: Q01DX009 (ip), vehicle: Klucel (hydroxypropylcellulose) (HPC).
Setting [2] is: dose: 200.0 mg/kg/injection, schedule: Q01DX009 (ip), vehicle: Klucel (hydroxypropylcellulose) (HPC).
Where [3] appears, read: dose: 12.5 mg/kg/injection, schedule: Q01DX009 (ip), vehicle: saline.
Setting [4] is: dose: 3.13 mg/kg/injection, schedule: Q01DX009 (ip), vehicle: water.
Where [5] appears, read: dose: 6.25 mg/kg/injection, schedule: Q01DX009 (ip), vehicle: water.
[6] abbreviates: dose: 12.5 mg/kg/injection, schedule: Q01DX009 (ip), vehicle: water.
Setting [7] is: dose: 25.0 mg/kg/injection, schedule: Q01DX009 (ip), vehicle: water.

SMILES strings stand for the structures. “And” between values parts separate entries of the source, which are not always exact repeats. Identical values can stand only once. Inconclusive results and toxic doses are left out.

Consider `C=C(C)CNC1=C(C)C(=O)C2=C(C1=O)[C@H](COC(N)=O)[C@]1(OC)[C@@H]3N[C@@H]3CN21`, for which the T/C reads like this: (dose: 0.13 mg/kg/injection, schedule: Q01DX001 (ip), vehicle: distilled water + Tween-80) 100 % of control; (dose: 0.25 mg/kg/injection, schedule: Q01DX001 (ip), vehicle: distilled water + Tween-80) 114 % of control; (dose: 1.5 mg/kg/injection, schedule: Q04DX003 (ip), vehicle: distilled water + Tween-80) 123 % of control; (dose: 2.0 mg/kg/injection, schedule: Q01DX001 (ip), vehicle: distilled water + Tween-80) 153 % of control; (dose: 3.0 mg/kg/injection, schedule: Q04DX003 (ip), vehicle: distilled water + Tween-80) 157 % of control; (dose: 4.0 mg/kg/injection, schedule: Q01DX001 (ip), vehicle: distilled water + Tween-80) 167 % of control. The T/C was 215 % of control (dose: 6.0 mg/kg/injection, schedule: Q04DX003 (ip), vehicle: distilled water + Tween-80) and 285 % of control (dose: 12.0 mg/kg/injection, schedule: Q04DX003 (ip), vehicle: distilled water + Tween-80).

Consider `CCCCNC(=O)C1C=C2c3cccc4[nH]cc(c34)CC2N(C)C1` (stereo unspecified), for which the T/C by setting is: (dose: 3.12 mg/kg/injection, schedule: Q01DX009 (ip), vehicle: Klucel (hydroxypropylcellulose) (HPC)) 93 % of control; (dose: 12.5 mg/kg/injection, schedule: Q01DX009 (ip), vehicle: Klucel (hydroxypropylcellulose) (HPC)) 91 % of control; (dose: 25.0 mg/kg/injection, schedule: Q01DX009 (ip), vehicle: Klucel (hydroxypropylcellulose) (HPC)) 93 % of control; (dose: 50.0 mg/kg/injection, schedule: Q01DX009 (ip), vehicle: Klucel (hydroxypropylcellulose) (HPC)) 96 % of control.

Consider `COc1cc([N+](=O)[O-])c2ncccc2c1`, for which the T/C under setting [1] is 115 % of control and the T/C under setting [2] was 110 % of control.

Consider `Oc1ccc(SCc2ccc(NCc3ccccc3)cc2)cc1`, for which the T/C runs as follows: (dose: 12.5 mg/kg/injection, schedule: Q01DX009 (ip), vehicle: other) 92 % of control; (dose: 12.5 mg/kg/injection, schedule: Q01DX009 (ip), vehicle: saline + alcohol) 105 % of control; (dose: 25.0 mg/kg/injection, schedule: Q01DX009 (ip), vehicle: other) 97 % of control; (dose: 25.0 mg/kg/injection, schedule: Q01DX009 (ip), vehicle: saline + alcohol) 103 % of control; (dose: 50.0 mg/kg/injection, schedule: Q01DX009 (ip), vehicle: other) 102 % of control; (dose: 50.0 mg/kg/injection, schedule: Q01DX009 (ip), vehicle: saline + alcohol) 99 % of control. Moreover, the T/C is 104 % of control (dose: 100.0 mg/kg/injection, schedule: Q01DX009 (ip), vehicle: other); 107 % of control (dose: 100.0 mg/kg/injection, schedule: Q01DX009 (ip), vehicle: saline + alcohol); 102 % of control (dose: 200.0 mg/kg/injection, schedule: Q01DX009 (ip), vehicle: other); 103 % of control (dose: 200.0 mg/kg/injection, schedule: Q01DX009 (ip), vehicle: saline + alcohol); 96 % of control (dose: 400.0 mg/kg/injection, schedule: Q01DX009 (ip), vehicle: other); 99 % of control (dose: 400.0 mg/kg/injection, schedule: Q01DX009 (ip), vehicle: saline + alcohol).

Take `CCCCCCCCCC(=O)CCC`: the T/C under setting [1] is 100 % of control; the T/C under setting [2] was 111 % of control; the T/C (dose: 400.0 mg/kg/injection, schedule: Q01DX009 (ip), vehicle: Klucel (hydroxypropylcellulose) (HPC)) is 95 % of control.

As for `NC1CC1c1ccccc1` (stereo unspecified), the T/C is 91 % of control (dose: 3.12 mg/kg/injection, schedule: Q01DX009 (ip), vehicle: saline); 101 % of control (dose: 6.25 mg/kg/injection, schedule: Q01DX009 (ip), vehicle: saline); 102 % of control under setting [3]; 113 % of control (dose: 25.0 mg/kg/injection, schedule: Q01DX009 (ip), vehicle: saline).

`O=c1c(O)c(-c2ccccc2)oc2ccccc12`: the T/C runs as follows: (dose: 100.0 mg/kg/injection, schedule: Q01DX009 (ip), vehicle: saline with Tween-80) 94 % of control; (dose: 200.0 mg/kg/injection, schedule: Q01DX009 (ip), vehicle: saline with Tween-80) 96 % of control; (dose: 400.0 mg/kg/injection, schedule: Q01DX009 (ip), vehicle: saline with Tween-80) 91 % of control; (dose: 800.0 mg/kg/injection, schedule: Q01DX009 (ip), vehicle: saline with Tween-80) 93 % of control.

As to `C[C@]12CC[C@H]3[C@@H](CCC4=CC(=O)CC[C@@]43C)[C@@H]1CC[C@@H]2OC(=O)Cc1ccc(N(CCCl)CCCl)cc1`, the T/C runs as follows: (dose: 64.0 mg/kg/injection, schedule: Q02DX009 (ip), vehicle: Klucel (hydroxypropylcellulose) (HPC)) 100 % of control and 111 % of control; (dose: 128.0 mg/kg/injection, schedule: Q02DX009 (ip), vehicle: Klucel (hydroxypropylcellulose) (HPC)) 95 % of control and 115 % of control; (dose: 256.0 mg/kg/injection, schedule: Q02DX009 (ip), vehicle: Klucel (hydroxypropylcellulose) (HPC)) 122 % of control.

Regarding `C[N+](C)(C)C`, the T/C is 112 % of control (dose: 0.37 mg/kg/injection, schedule: Q01DX009 (ip), vehicle: saline); 109 % of control (dose: 1.5 mg/kg/injection, schedule: Q01DX009 (ip), vehicle: saline); 95 % of control under setting [3].

Consider `O=C(OC1C(O)OC2COC(=O)c3cc(O)c(O)c(O)c3-c3c(cc(O)c(O)c3O)C(=O)OC2C1O)c1cc(O)c(O)c(O)c1` (stereo unspecified), for which the T/C (dose: 3.75 mg/kg/injection, schedule: Q01DX009 (ip), vehicle: saline) is 99 % of control and the T/C (dose: 7.5 mg/kg/injection, schedule: Q01DX009 (ip), vehicle: saline) is 112 % of control.

In the case of `CCOC(=O)/N=[N+](\[O-])c1ccccc1`, the T/C (dose: 3.12 mg/kg/injection, schedule: Q01DX009 (ip), vehicle: saline with Tween-80) is 97 % of control; the T/C (dose: 6.25 mg/kg/injection, schedule: Q01DX009 (ip), vehicle: saline with Tween-80) is 100 % of control; the T/C (dose: 12.5 mg/kg/injection, schedule: Q01DX009 (ip), vehicle: saline with Tween-80) is 105 % of control; the T/C (dose: 25.0 mg/kg/injection, schedule: Q01DX009 (ip), vehicle: saline with Tween-80) was 104 % of control.

`N#CCc1ccccc1S(=O)(=O)O`: the T/C reads like this: (dose: 100.0 mg/kg/injection, schedule: Q01DX009 (ip), vehicle: saline) 103 % of control; (dose: 200.0 mg/kg/injection, schedule: Q01DX009 (ip), vehicle: saline) 104 % of control; (dose: 400.0 mg/kg/injection, schedule: Q01DX009 (ip), vehicle: saline) 104 % of control.

In the case of `COc1cccc2c1C(=O)c1c(O)c3c(c(O)c1C2=O)C[C@@](O)(C(=O)CN1CCOCC1)C[C@@H]3OC1CC(N)C(O)C(C)O1` (stereo partly specified), the T/C is 159 % of control under setting [4], 153 % of control under setting [5], 157 % of control under setting [6] and 157 % of control under setting [7].

Consider `O=C[C@@H](CO)O[C@H](C=O)n1cnc2c(=O)[nH]cnc21`, for which the T/C by setting is: (dose: 37.5 mg/kg/injection, schedule: Q01DX009 (ip), vehicle: saline) 95 % of control; (dose: 75.0 mg/kg/injection, schedule: Q01DX009 (ip), vehicle: saline) 95 % of control; (dose: 150.0 mg/kg/injection, schedule: Q01DX009 (ip), vehicle: saline) 88 % of control.

Turning to `CC(=O)ON1C(=O)C=CC1=O`, the T/C reads like this: under setting [4], 92 % of control; under setting [5], 103 % of control; under setting [6], 106 % of control; under setting [7], 87 % of control.

As to `O=C(O)/C(Br)=C/c1ccccc1`, the T/C by setting is: (dose: 50.0 mg/kg/injection, schedule: Q04DX003 (ip), vehicle: saline with Tween-80) 107 % of control; (dose: 100.0 mg/kg/injection, schedule: Q04DX003 (ip), vehicle: saline with Tween-80) 112 % of control; (dose: 200.0 mg/kg/injection, schedule: Q04DX003 (ip), vehicle: saline with Tween-80) 102 % of control.
